Data from PMC4240668 (PLoS ONE, 2014).
Entries after “also recorded” stand apart in the source; their conditions may differ. Where two headings read alike, the source gives them in different places. No end group written: not given here.

Assays:
[1] = system: differentiated Caco-2 monolayer; assay: Identification of translocated peptides in basal medium of Caco-2 monolayers by MALDI-TOF-MS; details: Caco-2 monolayer incubated apically with 32 µmol/L PF-488 labeled parent peptide, 37°C
Method: (§1) Cells were pre-incubated with transport medium (Hank's Balanced Salt Solution (HBSS) with Ca^2+, Mg^2+ and glucose) (Invitrogen) (200 µl in the apical, 900 µl in the basal compartment of the transwell system) for 30 min at 37°C. Methyl-β-cyclodextrin (MβCD; Sigma-Aldrich, Munich, Germany; 2 mmol/L) was added to the apical compartment to inhibit endocytosis. Then, PF–488 labeled GP dissolved in 100 µl transport medium were added on the apical side of the cells at a total concentration of 32 µmol/L or 145 µmol/L. Cells were incubated at 37°C for 3 or 24 h. Thereafter, media from both compartments (apical and basal) were removed to be further analyzed by fluorescence spectroscopy and MALDI–TOF–MS; cell inserts were prepared for flow cytometry and confocal laser scanning microscopy.
(§2) For mass spectrometric analyses peptides were concentrated and desalted using C18 ZipTips (Millipore). MALDI–TOF–MS analysis of the apical and basal cell culture media was performed using a Bruker Ultraflex I instrument (Bruker Daltonics, Bremen, Germany) with 2,5-dihydroxybenzoic acid (DHB)/methylenbisphosphonic acid as matrix. For calibration an external standard peptide mixture (Bruker Daltonics) was used. MS-spectra were processed by the software FlexAnalysis (version 3.0, Bruker Daltonics). The peptide sequences of P56–68 and P31–43 as well as fragments of these peptides were deduced from the detected molecular mass considering the H^+, Na^+ and K^+ adducts. Masses were assigned to peptides allegeable to cleavage of GP. Detected GP were quantified by calculating the relative area under the curve (AUC). The values of three independent experiments are given as mean values.

[2] = system: immature dendritic cells (iDC); assay: Cytokine secretion (IL-8, TNF-α) by immature dendritic cells, sandwich ELISA; type: cell-based; details: for Secretion of IL-8 and TNF-α by dendritic cells: iDC from CD14+ PBMCs, 100 µg/mL peptide in RPMI + 2% human serum, 24 h, sandwich ELISA, three experiments (Fig. S1)
Method: Supplementary file pone.0113932.s001.tiff: Figure S1 Effect of P31–43 and P56–68 on cytokine secretion (IL-8, TNF-α) by immature dendritic cells (iDC). iDC were generated from CD14+ PBMCs by a 5-day incubation with 500 U/mL IL-4 and 1000 U/mL GM-CSF in RPMI media with 10% human serum. Then, iDC were incubated with 100 µg/mL P31–43 or P56–68 in RPMI+2% human serum for 24 h. IL-8 (A) and TNF-α (B) secretion in the media were analyzed by a commercially available sandwich ELISA (R&D, Wiesbaden, Germany). Each experiment was performed three times; data are given as mean ± SD; only significant differences are shown as *p<0.05, **p<0.01. (TIFF) Click here for additional data file.
Supplementary file pone.0113932.s002.tiff: Figure S2 Effect of the basal media - after incubation of a Caco-2 monolayer with P31–43 and P56–68 - on cytokine secretion (IL-8, TNF-α) by immature dendritic cells (iDC). iDC were generated from CD14+ PBMCs by 5-day incubation with 500 U/mL IL-4 and 1000 U/mL GM-CSF in RPMI media with 10% human serum. iDC were incubated 24 h with basal media of Caco-2 monolayers after they had been exposed to PF-488 labeled P31–43 and P56–68 on the apical side of the cells. IL-8 (A) and TNF-α (B) secretion in the media was analyzed by sandwich ELISA. Each experiment was performed three times; data are given as mean ± SD. (TIFF) Click here for additional data file.

[3] = system: Caco-2 cells (brush border membrane peptidases APN, CPP, DPP IV); assay: Digestion of gliadin peptides at the apical side of Caco-2 monolayers, MALDI-TOF-MS relative AUC; details: PF-488 labeled peptide at apical side of Caco-2 monolayer, HBSS, 37°C, mean of three independent experiments
Method: as §1, §2

[4] = system: Caco-2 cells (brush border membrane peptidases APN, CPP, DPP IV)
Method: as §1, §2

[5] = basal medium of differentiated Caco-2 monolayer (peptide added apically) in transport medium (HBSS); details: human, 37°C; for fragment found: up to 3 h
[6] = apical medium (HBSS transport medium) of differentiated Caco-2 monolayer in transwell; details: human, 37°C, up to 24 h
[7] = basal medium (HBSS transport medium) of Caco-2 monolayer after apical peptide addition; details: human, 37°C, up to 24 h
[8] = apical medium of differentiated Caco-2 monolayer in transport medium (HBSS with Ca2+, Mg2+ and glucose); details: human, 37°C, up to 24 h
[9] = basal medium of differentiated Caco-2 monolayer with MβCD in the apical compartment; details: human, 37°C, up to 24 h

Substance	Peptide detected in basal media after 24 h [1]	Secretion of IL-8 and TNF-α by dendritic cells [2]	fragment found [5]	fragment found [6]	cleaved bond [8]	other results
LGQQQPFPPQQP [P31–42]	detected	–	–	–	–	Peptide detected in basal media after 3 h ([1]; 3 h): detected
LGQQQPFPPQQPY [P31–43]	–	increased secretion	–	–	–	Cytokine production by iDC with basal culture media of peptide-exposed Caco-2 cells ([2]; iDC incubated 24 h with basal media of Caco-2 monolayers exposed apically to PF-488 labeled peptide, ELISA (Fig. S2)): did not significantly increase; Peptide remaining in the apical compartment still intact ([3]; 3 h, MALDI-TOF-MS after C18 ZipTip, relative AUC): 76%; C-terminal tyrosine residue cleaved (presumably by carboxypeptidase P) ([3]; 24 h, MALDI-TOF-MS relative AUC): 83%
LQLQPFPQPQLP [P56–67]	found	–	–	–	–	–
LQLQPFPQPQLPY [P56–68]	–	no effect	–	–	–	C-terminal tyrosine residue cleaved (presumably by carboxypeptidase P) [4]: 72%
PF-LGQQQPFPPQQPY	–	–	PF-LGQQQPFPPQQP, 3 h; also recorded: PF-LGQQQP, 3 h; also recorded: PF-LGQQ, 3 h; also recorded: PF-LGQ, 3 h	QQPFPPQQP, minor	P-Y, major, 3 h; also recorded: L-G, 3 h; also recorded: G-Q, 3 h; also recorded: P-F, minor, 3 h	cleaved bond [7]: P-Y, 3 h
PF-LQLQPFPQPQLPY	–	–	PF-LQ, 3 h	QLQPFPQPQLP, minor, 3 h; also recorded: LQPFPQPQLP, minor, 3 h; also recorded: QPFPQPQLP, minor, 3 h	P-Y, major, 3 h; also recorded: L-Q, minor, 3 h; also recorded: Q-L, minor, 3 h; also recorded: P-F, minor, 3 h	fragment found [9]: PF-LQLQPFPQPQ, 24 h; also recorded: PF-LQLQP, 24 h; also recorded: PF-LQL, 24 h; also recorded: PF-L, 24 h; also recorded: PF-LQLQPFPQPQLP, 24 h; cleaved bond ([5]; up to 24 h): P-Y, major, 24 h
